{
  "source": "ChEMBL document CHEMBL1275245",
  "about": "“Clinical and toxicodynamic evidence that high-dose pyrazinamide is not more hepatotoxic than the low doses currently used” (Antimicrob Agents Chemother, 2010)",
  "key": {"Homo sapiens [1]": {"tested_on": "Homo sapiens", "experiment": "Pharmacokinetic parameter in TB patient serum assessed as percentage of time the compound persisted above 10 mg/L at 3000 mg/kg administered alternate day", "assay_type": "ADME, organism-based", "parameters": "dose 3000 mg/kg", "conditions": "in vivo"}, "Homo sapiens [2]": {"species_on_record": "Homo sapiens", "experiment": "Pharmacokinetic parameter in TB patient serum assessed as percentage of time the compound persisted above 10 mg/L at 500 mg/ kg TID", "assay_type": "ADME, organism-based", "parameters": "dose 500 mg/ kg", "conditions": "in vivo"}, "Homo sapiens [3]": {"tested_on": "Homo sapiens", "experiment": "Hepatotoxicity in TB patients assessed as abnormal flocculation at 3.7 g/kg/day measured after 87 days", "assay_type": "toxicity, organism-based", "conditions": "in vivo, 3700 mg/kg, 2088 h"}, "Homo sapiens [4]": {"tested_on": "Homo sapiens", "experiment": "Pharmacokinetic parameter in TB patient serum assessed as percentage of time the compound persisted above 20 mg/L at 3000 mg/kg administered alternate day", "assay_type": "ADME, organism-based", "parameters": "dose 3000 mg/kg", "conditions": "in vivo"}, "[5]": {"experiment": "Cmax in TB patient serum at 500 mg/kg TID", "assay_type": "ADME, organism-based", "parameters": "dose 500 mg/kg", "conditions": "human"}, "[6]": {"experiment": "Systemic clearance in TB patient serum at 3000 mg/kg administered alternate day", "assay_type": "ADME, organism-based", "parameters": "dose 3000 mg/kg", "conditions": "human"}, "Homo sapiens [7]": {"tested_on": "Homo sapiens", "experiment": "Pharmacokinetic parameter in TB patient serum assessed as percentage of time the compound persisted above 5 mg/L at 3000 mg/kg administered alternate day", "assay_type": "ADME, organism-based", "parameters": "dose 3000 mg/kg", "conditions": "in vivo"}, "[8]": {"experiment": "AUC (0 to 168 hrs) in serum of TB patient at 3000 mg/kg administered alternate day", "assay_type": "ADME, organism-based", "parameters": "time < 168 hr, dose 3000 mg/kg", "conditions": "human"}, "Homo sapiens [9]": {"tested_on": "Homo sapiens", "experiment": "Hepatotoxicity in TB patients assessed as abnormal flocculation at 3.7 g/kg/day measured after 52 days", "assay_type": "toxicity, organism-based", "conditions": "in vivo, 3700 mg/kg, 1248 h"}, "[10]": {"experiment": "Cmax in TB patient serum at 3000 mg/kg administered alternate day", "assay_type": "ADME, organism-based", "parameters": "dose 3000 mg/kg", "conditions": "human"}, "Homo sapiens [11]": {"species_on_record": "Homo sapiens", "experiment": "Pharmacokinetic parameter in TB patient serum assessed as percentage of time the compound persisted above 5 mg/L at 500 mg/ kg TID", "assay_type": "ADME, organism-based", "parameters": "dose 500 mg/ kg", "conditions": "in vivo"}, "Homo sapiens [12]": {"tested_on": "Homo sapiens", "experiment": "Pharmacokinetic parameter in TB patient serum assessed as percentage of time the compound persisted above 10 mg/L at 1500 mg/kg daily", "assay_type": "ADME, organism-based", "parameters": "dose 1500 mg/kg", "conditions": "in vivo"}, "[13]": {"experiment": "Cmax in TB patient serum at 1500 mg/kg daily", "assay_type": "ADME, organism-based", "parameters": "dose 1500 mg/kg", "conditions": "human"}, "Homo sapiens [14]": {"tested_on": "Homo sapiens", "experiment": "Hepatotoxicity in TB patients assessed as elevated aspartate aminotransferase level at 40 g/kg", "assay_type": "toxicity, organism-based", "conditions": "in vivo, 40000 mg/kg"}, "Homo sapiens [15]": {"species_on_record": "Homo sapiens", "experiment": "Pharmacokinetic parameter in TB patient serum assessed as percentage of time the compound persisted above 20 mg/L at 500 mg/ kg TID", "assay_type": "ADME, organism-based", "parameters": "dose 500 mg/ kg", "conditions": "in vivo"}, "Homo sapiens [16]": {"tested_on": "Homo sapiens", "experiment": "Hepatotoxicity in TB patients assessed as jaundice at 3.7 g/kg/day measured after 52 days", "assay_type": "toxicity, organism-based", "conditions": "in vivo, 3700 mg/kg, 1248 h"}, "Homo sapiens [17]": {"tested_on": "Homo sapiens", "experiment": "Pharmacokinetic parameter in TB patient serum assessed as percentage of time the compound persisted above 5 mg/L at 1500 mg/kg daily", "assay_type": "ADME, organism-based", "parameters": "dose 1500 mg/kg", "conditions": "in vivo"}, "Homo sapiens [18]": {"tested_on": "Homo sapiens", "experiment": "Pharmacokinetic parameter in TB patient serum assessed as percentage of time the compound persisted above 20 mg/L at 1500 mg/kg daily", "assay_type": "ADME, organism-based", "parameters": "dose 1500 mg/kg", "conditions": "in vivo"}, "Homo sapiens [19]": {"species_on_record": "Homo sapiens", "experiment": "Toxicity in TB patients assessed as arthralgia", "assay_type": "organism-based", "conditions": "in vivo"}, "[20]": {"experiment": "AUC (0 to 168 hrs) in TB patient serum at 500 mg/ kg TID", "assay_type": "ADME, organism-based", "parameters": "time < 168 hr, dose 500 mg/ kg", "conditions": "human"}, "[21]": {"experiment": "Systemic clearance in TB patient serum at 1500 mg/kg daily", "assay_type": "ADME, organism-based", "parameters": "dose 1500 mg/kg", "conditions": "human"}, "Homo sapiens [22]": {"tested_on": "Homo sapiens", "experiment": "Hepatotoxicity in TB patients assessed as jaundice at 3.7 g/kg/day measured after 87 days", "assay_type": "toxicity, organism-based", "conditions": "in vivo, 3700 mg/kg, 2088 h"}, "[23]": {"experiment": "Systemic clearance in TB patient serum at 500 mg/ kg TID", "assay_type": "ADME, organism-based", "parameters": "dose 500 mg/ kg", "conditions": "human"}, "Homo sapiens [24]": {"species_on_record": "Homo sapiens", "experiment": "Toxicity in TB patients assessed as death", "assay_type": "organism-based", "conditions": "in vivo"}, "[25]": {"experiment": "AUC (0 to 168 hrs) in serum of TB patient at 1500 mg/kg daily", "assay_type": "ADME, organism-based", "parameters": "time < 168 hr, dose 1500 mg/kg", "conditions": "human"}, "Homo sapiens [26]": {"tested_on": "Homo sapiens", "experiment": "Hepatotoxicity in TB patients assessed as elevated aspartate aminotransferase level at 60 g/kg", "assay_type": "toxicity, organism-based", "conditions": "in vivo, 60000 mg/kg"}, "Homo sapiens [27]": {"tested_on": "Homo sapiens", "experiment": "Hepatotoxicity in TB patients assessed as elevated aspartate aminotransferase level at 30 g/kg", "assay_type": "toxicity, organism-based", "conditions": "in vivo, 30000 mg/kg"}},
  "data": [
    {"smiles": "NC(=O)c1cnccn1", "note": "[PYRAZINAMIDE]", "values": [
      {"measurement": "Activity", "setting": "Homo sapiens [1]", "result": 35, "unit": "%"},
      {"measurement": "Activity", "setting": "Homo sapiens [2]", "result": 67, "unit": "%"},
      {"measurement": "Activity", "setting": "Homo sapiens [3]", "result": "Non-toxic"},
      {"measurement": "Activity", "setting": "Homo sapiens [4]", "result": 23, "unit": "%"},
      {"measurement": "Cmax", "setting": "[5]", "result": 20200, "unit": "ng/mL"},
      {"measurement": "clearance", "setting": "[6]", "result": 69.3, "unit": "mL/min"},
      {"measurement": "Activity", "setting": "Homo sapiens [7]", "result": 48, "unit": "%"},
      {"measurement": "AUC(0-t) at 168 h", "setting": "[8]", "result": 2160, "unit": "µg·h/mL"},
      {"measurement": "Activity", "setting": "Homo sapiens [9]", "result": "Non-toxic"},
      {"measurement": "Cmax", "setting": "[10]", "result": 67500, "unit": "ng/mL"},
      {"measurement": "Activity", "setting": "Homo sapiens [11]", "result": 92, "unit": "%"},
      {"measurement": "Activity", "setting": "Homo sapiens [12]", "result": 49, "unit": "%"},
      {"measurement": "Cmax", "setting": "[13]", "result": 33800, "unit": "ng/mL"},
      {"measurement": "Activity", "setting": "Homo sapiens [14]", "result": "Non-toxic"},
      {"measurement": "Activity", "setting": "Homo sapiens [15]", "result": 9, "unit": "%"},
      {"measurement": "Activity", "setting": "Homo sapiens [16]", "result": "Non-toxic"},
      {"measurement": "Activity", "setting": "Homo sapiens [17]", "result": 74, "unit": "%"},
      {"measurement": "Activity", "setting": "Homo sapiens [18]", "result": 24, "unit": "%"},
      {"measurement": "Activity", "setting": "Homo sapiens [19]", "result": "Toxic"},
      {"measurement": "AUC at 168 h", "setting": "[20]", "result": 2190, "unit": "µg·h/mL"},
      {"measurement": "clearance", "setting": "[21]", "result": 66.2, "unit": "mL/min"},
      {"measurement": "Activity", "setting": "Homo sapiens [22]", "result": "Non-toxic"},
      {"measurement": "clearance", "setting": "[23]", "result": 68.5, "unit": "mL/min"},
      {"measurement": "Activity", "setting": "Homo sapiens [24]", "result": "Toxic"},
      {"measurement": "AUC at 168 h", "setting": "[25]", "result": 2270, "unit": "µg·h/mL"},
      {"measurement": "Activity", "setting": "Homo sapiens [26]", "result": "Non-toxic"},
      {"measurement": "Activity", "setting": "Homo sapiens [27]", "result": "Non-toxic"}
    ]}
  ]
}
